Counter-ions that a name gives are not always drawn.
Each molecule was assayed against Glycogen synthase kinase-3 beta (Homo sapiens, UniProt P49841) (assay: concentration-response blocking of human GSK3B – biochemical, luminescence, cell-free homogeneous, retest, dose response (AID 434954)).
Sequence of Glycogen synthase kinase-3 beta (P49841 whole entry): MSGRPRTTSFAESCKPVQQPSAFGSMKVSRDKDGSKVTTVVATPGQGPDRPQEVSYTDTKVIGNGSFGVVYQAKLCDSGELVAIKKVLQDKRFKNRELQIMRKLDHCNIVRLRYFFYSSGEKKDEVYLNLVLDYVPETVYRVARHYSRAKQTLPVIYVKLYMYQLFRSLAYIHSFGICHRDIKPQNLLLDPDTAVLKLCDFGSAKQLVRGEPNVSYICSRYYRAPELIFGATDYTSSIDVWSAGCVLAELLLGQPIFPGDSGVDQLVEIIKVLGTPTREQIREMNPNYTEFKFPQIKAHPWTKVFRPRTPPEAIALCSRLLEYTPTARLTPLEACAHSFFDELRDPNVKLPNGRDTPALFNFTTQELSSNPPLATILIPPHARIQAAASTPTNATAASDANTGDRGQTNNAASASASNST

| Structure (SMILES) | EC50 [µM] |
| --- | --- |
| CN1CCc2c(sc3c2c(=O)n(-c2ccccc2)c2n[nH]c(=S)n32)C1 [MLS000558136] | 21.7 |
| O=NCc1cn(-c2ccccc2)nc1-c1ccc2c(c1)OCCO2 [N-[[3-(2,3-dihydro-1,4-benzodioxin-6-yl)-1-phenylpyrazol-4-yl]methylidene]hydroxylamine] | 58.7 |
| Cc1ccc(Nc2nc(NCC3CCCO3)nc(N)c2[N+](=O)[O-])cc1C (stereo not drawn) [SMR000219669] | 10.7 |
| CCCOC1CCCN(Cc2cn(C)nc2-c2ccccc2F)C1 (stereo not drawn) [1-[[3-(2-fluorophenyl)-1-methylpyrazol-4-yl]methyl]-3-propoxypiperidine] | > 300 |
| COc1ccc(C(=O)OCCc2sc[n+](CC(=O)c3ccccc3)c2C)cc1 [4-methoxybenzoic acid 2-(4-methyl-3-phenacyl-5-thiazol-3-iumyl)ethyl ester;bromide] | 26 |
| c1c2c(cc3sc(N4CCOCC4)nc13)OCCO2 [2-(4-morpholinyl)-6,7-dihydro-[1,4]dioxino[2,3-f][1,3]benzothiazole] | > 300 |
| Cc1ccccc1NC(=O)CSc1nnc2ccc(-c3ccncc3)nn12 [SMR000808359] | > 300 |
| CN(Cc1c(C(=O)NN=Cc2cccc(F)c2)nnn1-c1nonc1N)c1ccccc1 [MLS001141039] | 15.6 |
| CCN(CC)CCN1C(=O)C(=O)C(C(=O)c2ccc(S(=O)(=O)N3CCOCC3)cc2)C1c1ccccc1 (stereo not drawn) [(4E)-1-[2-(diethylamino)ethyl]-4-[hydroxy-[4-(4-morpholinylsulfonyl)phenyl]methylidene]-5-phenylpyrrolidine-2,3-dione] | > 300 |
| O=C(CCSCCc1ccccn1)Nc1ccc(Br)cn1 [N-(5-bromopyridin-2-yl)-3-(2-pyridin-2-ylethylsulfanyl)propanamide] | 39.3 |
| O=C1c2ccccc2NC(c2c[nH]nc2-c2ccccc2)N1O (stereo not drawn) | > 300 |
| CCCCc1cc(=O)oc2cc(C)c(CN3CCCC3)c(O)c12 [4-butyl-7-methyl-5-oxidanyl-6-(pyrrolidin-1-ylmethyl)chromen-2-one] | > 300 |
| Cc1ccc(S(=O)(=O)N/C(=N/C(C)C(=O)O)c2ccccc2)cc1 (stereo not drawn) [MLS000108658] | > 300 |
| CC[n+]1c(/C=C/N(C)c2ccccc2)oc2ccc(Cl)cc21 [SMR000184374] | > 300 |
| CCn1c(SCC(=O)Nc2ccc(F)cc2)nnc1C1CC1 [2-[(5-cyclopropyl-4-ethyl-1,2,4-triazol-3-yl)sulfanyl]-N-(4-fluorophenyl)ethanamide] | > 300 |
| Cc1ccc2nc3c(cc2c1)c(NC(=O)c1ccccn1)nn3CC(C)C | > 300 |
| Cc1ccc2nc3c(cc2c1)c(NC(=O)C1CCCO1)nn3CC(C)C (stereo not drawn) [SMR000148636] | > 300 |
| CCC(C)NCCOCCOc1ccc(Cl)cc1Br (stereo not drawn) [N-[2-[2-(2-bromo-4-chlorophenoxy)ethoxy]ethyl]-2-butanamine;oxalic acid] | > 300 |
| COc1ccc(Nc2nc(N)nc(CSc3nnc(C)s3)n2)cc1 [MLS000527270] | 82 |
| CCCCc1c(O)nc(SCC(=O)c2ccccc2)n(-c2ccccc2OC)c1=O [5-Butyl-6-hydroxy-3-(2-methoxy-phenyl)-2-(2-oxo-2-phenyl-ethylsulfanyl)-3H-pyrimidin-4-one] | > 300 |
| Cc1ccc(S(=O)(=O)NCC(=O)N(CCc2ccccc2)CC(=O)NCc2ccco2)cc1 [N-[2-(furan-2-ylmethylamino)-2-oxoethyl]-2-[(4-methylphenyl)sulfonylamino]-N-(2-phenylethyl)acetamide] | > 300 |

| Structure (SMILES) | EC50 [µM] |
| --- | --- |
| Cc1nnc(SCC(=O)N2CCC(C(=O)Nc3nccs3)CC2)n1Cc1ccccc1 | 36.6 |
| COc1ccc(/C=C2/SC(NS(=O)(=O)Cc3ccccc3)=NC2=O)cc1OC [N-[(5E)-5-[(3,4-dimethoxyphenyl)methylidene]-4-oxo-2-thiazolyl]-1-phenylmethanesulfonamide] | > 300 |
| Cc1ccc(-c2nn(-c3ccccc3)cc2C=C2C(=O)CC(C)(C)CC2=O)cc1 [5,5-dimethyl-2-[[3-(4-methylphenyl)-1-phenylpyrazol-4-yl]methylidene]cyclohexane-1,3-dione] | > 300 |
| COC(=O)c1ccc(O)cc1 | > 300 |
| CC(c1ccccc1)n1c(CCCO)nc2ccccc21 (stereo not drawn) [3-[1-(1-Phenyl-ethyl)-1H-benzoimidazol-2-yl]-propan-1-ol] | > 300 |
| COc1cccc2cc(C(C)=O)c(=O)oc12 [3-acetyl-8-methoxy-2H-chromen-2-one] | > 300 |
| Cc1ccc(OCC(=O)NN=C2SCC(=O)N2Cc2ccccc2)cc1 [2-(4-methylphenoxy)-N-[[4-oxo-3-(phenylmethyl)-2-thiazolidinylidene]amino]acetamide] | > 300 |
| Cc1ccc(S(=O)(=O)CCSc2n[nH]c(=O)n2-c2ccc3c(c2)OCCO3)cc1 [SMR000456166] | 74.4 |
| CCOc1ccc(Nc2nc(N)c([N+](=O)[O-])c(NCc3ccccc3)n2)cc1 [N'-Benzyl-N-(4-ethoxy-phenyl)-5-nitro-pyrimidine-2,4,6-triamine] | > 300 |
| CCCc1cc(NCc2ccccn2)n2nc(C)c(-c3ccccc3)c2n1 [MLS000762884] | > 300 |
| Nc1nc(NCc2ccco2)nc(Nc2ccccc2)c1[N+](=O)[O-] [N-Furan-2-ylmethyl-5-nitro-N'-phenyl-pyrimidine-2,4,6-triamine] | > 300 |
| COc1cc(/C=C2/C(=O)NN(c3cccc(Cl)c3)C2=O)cc(Br)c1O [MLS001210835] | 42.6 |
| COC(=O)c1ccc(NC(=O)CCN2CCN(Cc3ccccc3)CC2)cc1 [4-[3-(4-Benzyl-piperazin-1-yl)-propionylamino]-benzoic acid methyl ester] | > 300 |
| CC(=O)N1CCc2c(sc(NC(=O)C3CCCCC3)c2C(N)=O)C1 [2-(cyclohexylcarbonylamino)-6-ethanoyl-5,7-dihydro-4H-thieno[2,3-c]pyridine-3-carboxamide] | > 300 |
| Cc1c(NC(=O)C(C)n2cc([N+](=O)[O-])cn2)c(=O)n(-c2ccccc2)n1C (stereo not drawn) [N-(1,5-dimethyl-3-oxo-2-phenylpyrazol-4-yl)-2-(4-nitropyrazol-1-yl)propanamide] | > 300 |
| O=C(Cc1ccc(Br)cc1)Nc1ncc([N+](=O)[O-])s1 [SMR000429978] | 4.3 |
| CCNC(=S)Nc1ccc2cn[nH]c2c1 [SMR000261305] | > 300 |
| O=C(Cn1cc2c(n1)CCCCC2)NC1CCN(Cc2ccccc2)CC1 [N-(1-benzylpiperidin-4-yl)-2-(5,6,7,8-tetrahydro-4H-cyclohepta[c]pyrazol-2-yl)acetamide] | > 300 |
| COc1ccccc1Nc1nc(NCCCN(C)C)nc(N)c1[N+](=O)[O-] [N2-[3-(dimethylamino)propyl]-N4-(2-methoxyphenyl)-5-nitro-pyrimidine-2,4,6-triamine] | 2.13 |
| CCCOC(=O)c1ccc(O)cc1 [SMR000112070] | > 300 |
| CCOc1ccccc1NC(=O)CSc1nnc(C2CC2)n1CC [2-[(5-cyclopropyl-4-ethyl-1,2,4-triazol-3-yl)thio]-N-(2-ethoxyphenyl)acetamide] | > 300 |

| Structure (SMILES) | EC50 [µM] |
| --- | --- |
| COC(=O)c1nnn(-c2nonc2N)c1CSCCO [1-(4-amino-1,2,5-oxadiazol-3-yl)-5-[(2-hydroxyethylthio)methyl]-4-triazolecarboxylic acid methyl ester] | 6.22 |
| CCOc1ccc2c(c1)C(=O)C(=O)N2CC1COc2ccccc2O1 (stereo not drawn) [1-(2,3-dihydro-1,4-benzodioxin-3-ylmethyl)-5-ethoxy-indole-2,3-dione] | > 300 |
| Cc1nnc2n(-c3ccccc3)c(=O)c3c4c(sc3n12)CC(C)CC4 (stereo not drawn) [MLS000030539] | > 300 |
| c1cncc(-c2nc(NCc3ccc4c(c3)OCO4)c3ccccc3n2)c1 [N-(1,3-benzodioxol-5-ylmethyl)-2-(3-pyridinyl)-4-quinazolinamine] | > 300 |
| COc1cc([CH-]N=[O+]C)ccc1Oc1ccc([N+](=O)[O-])cc1[N+](=O)[O-] [MLS000699890] | > 300 |
| N#Cc1c(-c2cccs2)cc(-c2cccnc2)nc1N [SMR000043147] | 10.4 |
| COc1ccc(Nc2nc(-c3ccncc3)nc3ccccc23)cc1 [N-(4-methoxyphenyl)-2-pyridin-4-ylquinazolin-4-amine] | > 300 |
| CSc1nc(NCc2ccccc2)c2c3c(sc2n1)CN(C)CC3 | 23.3 |
| CCNc1nc(N)c(C(=O)C23CC4CC(CC(C4)C2)C3)s1 [Adamantan-1-yl-(4-amino-2-ethylamino-thiazol-5-yl)-methanone] | > 300 |
| CCOC(=O)c1ccc2c(c1)[n+](CC)c(/C=C/N(C)c1ccccc1)n2CC [MLS000561766] | > 300 |
| O=C(O)c1ccccc1Nc1ccnc(C(F)(F)F)c1 [2-[[2-(trifluoromethyl)-4-pyridinyl]amino]benzoic acid] | > 300 |
| C=CCn1cc(/C=C/c2cc[n+](C)cc2)c2ccccc21 [3-[(E)-2-(1-methylpyridin-1-ium-4-yl)ethenyl]-1-prop-2-enyl-indole;iodide] | > 300 |
| CCC1(CC)NC(=O)N(CC(=O)OCC(=O)Nc2sccc2C#N)C1=O [[2-[(3-cyanothiophen-2-yl)amino]-2-oxoethyl] 2-(4,4-diethyl-2,5-dioxoimidazolidin-1-yl)acetate] | > 300 |
| CNC(=O)c1ccsc1NC(=O)C1CCN(S(=O)(=O)c2ccc(Cl)s2)CC1 [SMR000812824] | > 300 |
| Cc1ccc(-n2c(=O)c3c4c(sc3n3c(S)nnc23)CCC4)cc1 [SMR000419881] | 44.5 |
| COc1ccc(OC)c(C2Nc3ccccc3N=C3CC(C)(C)CC(=O)C32)c1 (stereo not drawn) [SMR000515998] | > 300 |
| CCOc1ccc2c(c1)C(NC(C)=O)C(=O)N2CCN1CCOCC1 (stereo not drawn) [N-[5-ethoxy-1-(2-morpholin-4-ylethyl)-2-oxo-3H-indol-3-yl]acetamide;hydrochloride] | > 300 |
| O=C1CCCC2=Nc3ccccc3NC(c3cccs3)C12 (stereo not drawn) [6-thiophen-2-yl-5,6,8,9,10,11-hexahydrobenzo[b][1,4]benzodiazepin-7-one] | > 300 |
| CN(C)c1nc(N)c([N+](=O)[O-])c(NCCO)n1 | > 300 |
| CCN(CCNC(=O)CN(C)S(=O)(=O)c1cccc2nsnc12)c1ccccc1 | > 300 |
| Fc1ccccc1Nc1nc(-c2ccncc2)nc2ccccc12 [N-(2-fluorophenyl)-2-pyridin-4-yl-quinazolin-4-amine] | > 300 |

From BindingDB's records for doi:10.7270/Q2TX3CTT (Broad Institute, 2010)
